Test results taken from US20100216767A1, “QUINAZOLINES FOR PDK1 INHIBITION” (priority 2006, published 2010).

Molecular target: T1, PDK1 kinase (Homo sapiens, UniProt O15530)
T1 sequence (O15530 1-556): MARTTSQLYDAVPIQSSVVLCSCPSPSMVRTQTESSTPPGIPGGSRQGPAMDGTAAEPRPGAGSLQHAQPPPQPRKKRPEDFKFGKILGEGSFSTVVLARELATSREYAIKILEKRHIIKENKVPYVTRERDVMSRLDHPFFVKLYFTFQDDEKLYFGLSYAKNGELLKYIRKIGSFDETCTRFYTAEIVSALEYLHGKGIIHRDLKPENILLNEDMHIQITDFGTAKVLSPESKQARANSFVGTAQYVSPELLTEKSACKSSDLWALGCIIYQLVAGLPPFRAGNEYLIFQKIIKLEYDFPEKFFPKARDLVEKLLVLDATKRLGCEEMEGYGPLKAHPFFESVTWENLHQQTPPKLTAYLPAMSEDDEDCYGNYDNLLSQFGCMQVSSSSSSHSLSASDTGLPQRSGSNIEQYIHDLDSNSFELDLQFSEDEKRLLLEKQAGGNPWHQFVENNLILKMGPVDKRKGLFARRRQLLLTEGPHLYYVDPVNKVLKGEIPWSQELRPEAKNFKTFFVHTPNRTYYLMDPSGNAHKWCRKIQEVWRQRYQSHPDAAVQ
Assay: PDK1 Kinase Alpha Screen Assay
Type: biochemical
Details: Table 1; 10 μM ATP, 50 nM PDK1-4 peptide
Method: Reagents/Concentrations: The PDK1-4 peptide substrate, biotin-[…]-NH2, (SEQ ID NO: 1), was purchased from the Tufts University Core Facility. The final concentration of PDK1-4 peptide substrate was 50 nM. The ATP substrate (adenosine-[…] triphosphate) was purchased from Roche Diagnostics. The final concentration of ATP substrate was 10 μM. Phospho-(Ser/Thr) PKA substrate antibody was purchased from Cell Signaling Technology. The final concentration of antibody was 0.3 mg/mL. The Alpha Screen Protein A detection kit containing donor and acceptor beads was purchased from PerkinElmer Life Sciences. The final concentration of both donor and acceptor beads was 25 μg/mL. Alpha Screen was used for detection. The biotinylated-PDK1-4 peptide was phosphorylated by PDK1 kinase using the ATP substrate. The biotinylated-PDK1-4 peptide substrate was bound to the streptavidin coated donor bead. The antibody was bound to the protein A coated acceptor bead. The antibody bound to the phosphorylated form of the biotinylated PDK-1 peptide substrate, bringing the donor and acceptor beads into close proximity. Laser irradiation of the donor bead at 680 nm generated a flow of short-lived singlet oxygen molecules. When the donor and acceptor beads were in close proximity, the reactive oxygen generated by the irradiation of the donor beads initiated a luminescence/fluorescence cascade in the acceptor beads. This process led to a highly amplified signal with output in the 530-620 nm range. Assays were carried out in 50 mM Tris, pH=7.5, 10 mM MgCl2, 0.1% BSA, 0.01% Tween-20, 2 mM dithiolthreitol, 2.5% dimethyl sulfoxide. Reactions were stopped by adding 50 mM Tris, pH=7.5, 90 mM EDTA, 0.1% BSA, 0.01% Tween-20.
Procedure: To 10 μl, of PDK1-4 peptide, […] of test compound in dimethyl sulfoxide was added. PDK1 kinase and ATP were mixed, and 10 μL of the PDK1 kinase/ATP mix was added to start the reaction. The reaction was allowed to proceed for 3-18 hours. The reactions were then stopped by adding 10 μL of the EDTA-containing stop buffer. Beads were mixed with antibody, and 25 μL of the bead/antibody mix was then added to the stopped reactions. Plates were incubated at room temperature overnight to allow for detection development before being read. The assay was run in a 384-well format plate.

IC50 [µM] | Structure (SMILES)
< 5 | C#Cc1cc2cnc(Nc3ccc(-c4nnn[nH]4)cc3)nc2cc1OC [Example 96, N-(4-(1H-tetrazol-5-yl)-phenyl)-6-ethynyl-7-methoxyquinazolin-2-amine]
< 5 | C#Cc1cc2cnc(Nc3ccc(-n4cnnn4)cc3)nc2cc1OC [Example 97, N-(4-(1H-tetrozol-1-yl)phenyl)-6-ethynyl-7-methoxyquinazolin-2-amine]
< 5 | C#Cc1cc2cnc(Nc3cccc(-c4nnn[nH]4)c3)nc2cc1OC [Example 98, N-(3-(1H-tetrazol-5-yl)phenyl)-6-ethynyl-7-methoxyquinazolin-2-amine]
< 5 | C#Cc1ccc2nc(Nc3ccc(N4CCOCC4)cc3)ncc2c1Cl [Example 99, 5-chloro-6-ethynyl-N-(4-morpholinophenyl)quinazolin-2-amine]
< 5 | c1csc(-c2ccc3nc(Nc4ccc(N5CCOCC5)cc4)ncc3c2)n1 [Example 100, N-(4-morpholinophenyl)-6-(thiazol-2-yl)quinazolin-2-amine]
< 5 | C#Cc1cc(OC)c2nc(Nc3ccc(N4CCOCC4)cc3)ncc2c1Cl [Example 101, 5-chloro-6-ethynyl-8-methoxy-N-(4-morpholinophenyl)-quinazolin-2-amine]
< 5 | COc1cc2nc(Nc3ccc(C(=O)N4CCOCC4)c(Cl)c3)ncc2cc1Br [Example 102, (4-(6-bromo-7-methoxy-quinazolin-2-ylamino)-2-chlorophenyl)(morpholino)-methanone]
< 5 | C#Cc1cc2cnc(Nc3cccc(-n4cnnn4)c3)nc2cc1OC [Example 103, N-(3-(1H-tetrazol-1-yl)phenyl)-6-ethynyl-7-methoxyquinazolin-2-amine]
< 5 | COc1cc2nc(Nc3ccc(C(=O)N4CCOCC4)c(Cl)c3)ncc2cc1-c1nccs1 [Example 104]
< 5 | C#Cc1ccc2nc(Nc3cc(NC(C)=O)cc(NC(C)=O)c3)ncc2c1 [Example 105, N,N′-(5-(6-ethynyl-quinazolin-2-ylamino)-1,3-phenylene)diacetamide]
< 5 | C#Cc1ccc2nc(Nc3ccc(C(=O)NC(C)C)cc3)ncc2c1Cl [Example 106, 4-(5-chloro-6-ethynyl-quinazolin-2-ylamino)-N-isopropylbenzamide]
< 5 | C#Cc1ccc2nc(Nc3ccc(C(=O)NC4CC4)cc3)ncc2c1Cl [Example 107, 4-(5-chloro-6-ethynyl-quinazolin-2-ylamino)-N-cyclopropylbenzamide]
< 5 | COc1ccc2nc(Nc3cc(CN(C)C)cc(NC(C)=O)c3)ncc2c1 [Example 109, N-(3-((dimethylamino)-methyl)-5-(6-methoxy-quinazolin-2-ylamino)-phenyl)acetamide]
< 5 | COc1cncc(-c2cc(OC)c3nc(Nc4cc(CN(C)C)cc(NC(C)=O)c4)ncc3c2)n1 [Example 110, N-(3-((dimethylamino)-methyl)-5-(8-methoxy-6-(6-methoxypyrazin-2-yl)quinazolin-2-ylamino)phenyl)acetamide]
5 to 10 | COc1nc(N)ncc1-c1cc(OC)c2nc(Nc3cc(CN(C)C)cc(NC(C)=O)c3)ncc2c1 [Example 111, N-(3-(6-(2-amino-4-methoxypyrimidin-5-yl)-8-methoxyquinazolin-2-ylamino)-5-((dimethyl-amino)methyl)-phenyl)-acetamide]
< 5 | COc1cc2nc(Nc3cccc(-n4cnnn4)c3)ncc2cc1-c1nccs1 [Example 112, N-(3-(1H-tetrazol-1-yl)phenyl)-7-methoxy-6-(thiazol-2-yl)quinazolin-2-amine]
< 5 | C#Cc1cc(OC)c2nc(Nc3ccc(C(=O)N4CCOCC4)cc3)ncc2c1Cl [Example 113, (4-(5-chloro-6-ethynyl-8-methoxyquinazolin-2-ylamino)phenyl)-(morpholino)methanone]

IC50 [µM] | Structure (SMILES)
< 5 | C#Cc1cc(OC)c2nc(Nc3ccc(C(=O)NC(C)C)cc3)ncc2c1Cl [Example 114, 4-(5-chloro-6-ethynyl-8-methoxyquinazolin-2-ylamino)-N-isopropyl-benzamide]
< 5 | COc1cc(-c2nccs2)c(Cl)c2cnc(Nc3ccc(N4CCOCC4)cc3)nc12 [Example 115, 5-chloro-8-methoxy-N-(4-morpholinophenyl)-6-(thiazol-2-yl)quinazolin-2-amine]
< 5 | COc1cc(Br)c(Cl)c2cnc(Nc3ccc(N4CCOCC4)cc3)nc12 [Example 116, 6-bromo-5-chloro-8-methoxy-N-(4-morpholinophenyl)-quinazolin-2-amine]
< 5 | COc1cc(-c2nccs2)c(Cl)c2cnc(Nc3ccc(C(=O)N4CCOCC4)cc3)nc12 [Example 117, (4-(5-chloro-8-methoxy-6-(thiazol-2-yl)quinazolin-2-ylamino)phenyl)-(morpholino)-methanone]
< 5 | COc1cc(Br)c(Cl)c2cnc(Nc3ccc(C(=O)N4CCOCC4)cc3)nc12 [Example 118, (4-(6-bromo-5-chloro-8-methoxyquinazolin-2-ylamino)phenyl)-(morpholino)-methanone]
< 5 | COc1cc(-c2nccs2)c(Cl)c2cnc(Nc3ccc(C(=O)NC(C)C)cc3)nc12 [Example 119, 4-(5-chloro-8-methoxy-6-(thiazol-2-yl)quinazolin-2-ylamino)-N-isopropyl-benzamide]
< 5 | C#Cc1cc2cnc(Nc3ccc(C(=O)N4CCOCC4)c(Cl)c3)nc2cc1OC [Example 120, (2-chloro-4-(6-ethynyl-7-methoxyquinazolin-2-ylamino)phenyl)-(morpholino)methanone]
< 5 | C#Cc1ccc2nc(Nc3cccc(N4CCOCC4)c3)ncc2c1Cl [Example 121, 5-chloro-6-ethynyl-N-(3-morpholinophenyl)-quinazolin-2-amine]
< 5 | COc1cc2nc(Nc3cc(CN(C)C)cc(NC(C)=O)c3)ncc2cc1-c1nccs1 [Example 122, N-(3-((dimethylamino)-methyl)-5-(7-methoxy-6-(thiazol-2-yl)quinazolin-2-ylamino)phenyl)acetamide]
5 to 10 | NC(=O)c1cc(Nc2ncc3cc(Br)ccc3n2)ccc1N1CCOCC1 [Example 123, 5-(6-bromoquinazolin-2-ylamino)-2-morpholino-benzamide]
< 5 | C#Cc1ccc2nc(Nc3ccc(N4CCOCC4)c(C(N)=O)c3)ncc2c1 [Example 124, 5-(6-ethynylquinazolin-2-ylamino)-2-morpholino-benzamide]
< 5 | C#Cc1ccc2nc(Nc3cc(CN4CCOCC4)cc(NC(C)=O)c3)ncc2c1 [Example 125, N-(3-(6-ethynylquinazolin-2-ylamino)-5-(morpholino-methyl)phenyl)acetamide]
< 5 | CC(=O)Nc1cc(CN2CCCC2)cc(Nc2ncc3cc(-c4nccs4)ccc3n2)c1 [Example 126, N-(3-(pyrrolidin-1-ylmethyl)-5-(6-(thiazol-2-yl)quinazolin-2-ylamino)-phenyl)acetamide]
< 5 | C#Cc1ccc2nc(Nc3cc(CN4CCCC4)cc(NC(C)=O)c3)ncc2c1 [Example 127, N-(3-(6-ethynylquinazolin-2-ylamino)-5-(pyrrolidin-1-ylmethyl)phenyl)-acetamide]
< 5 | CC(=O)Nc1cc(CN2CCOCC2)cc(Nc2ncc3cc(Br)cc(Cl)c3n2)c1 [Example 128, N-(3-(6-bromo-8-chloro-quinazolin-2-ylamino)-5-(morpholinomethyl)-phenyl)-acetamide]
< 5 | C#Cc1cc(Cl)c2nc(Nc3cc(CN4CCOCC4)cc(NC(C)=O)c3)ncc2c1 [Example 129, N-(3-(8-chloro-6-ethynyl-quinazolin-2-ylamino)-5-(morpholinomethyl)-phenyl)-acetamide]
< 5 | C#Cc1ccc2nc(Nc3cc(NC(C)=O)cc(NC(C)=O)c3)ncc2c1Cl [Example 130, N,N′-(5-(5-chloro-6-ethynylquinazolin-2-ylamino)-1,3-phenylene-) diacetamide]
